Measurements reported in patent US8293769B2, “CSF-1R inhibitors, compositions, and methods of use” (Novartis AG, priority 2008, dated 2012).

Columns and labels:
[1] = molecular target: T1, cytoplasmic domain of the human CSF-1R (Homo sapiens, UniProt P07333); assay: In vitro kinase assay for CSF-1R (AlphaScreen); assay type: biochemical; conditions: tested at about 1 μM; read-out: CSF1RK 1 percent inhibition
T1 construct: Recombinant protein corresponding to the cytoplasmic domain of the human CSF-1R; purchased Invitrogen Corporation, Carlsbad, Calif; PV3249
T1 sequence (P07333 539-972 limits assumed): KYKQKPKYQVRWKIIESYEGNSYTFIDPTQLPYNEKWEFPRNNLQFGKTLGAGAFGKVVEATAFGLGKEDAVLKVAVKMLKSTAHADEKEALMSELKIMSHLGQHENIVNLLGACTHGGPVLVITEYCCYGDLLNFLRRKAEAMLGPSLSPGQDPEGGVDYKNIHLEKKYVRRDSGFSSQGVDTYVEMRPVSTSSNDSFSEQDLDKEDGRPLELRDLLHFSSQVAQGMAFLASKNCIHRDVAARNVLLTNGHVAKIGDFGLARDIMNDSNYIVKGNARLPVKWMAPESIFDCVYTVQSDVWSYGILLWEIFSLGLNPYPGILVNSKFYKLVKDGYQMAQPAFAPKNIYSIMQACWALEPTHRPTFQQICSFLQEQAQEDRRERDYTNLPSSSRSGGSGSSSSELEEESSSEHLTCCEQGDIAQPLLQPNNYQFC
How it was run: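 Recombinant CSF-1R cytoplasmic domain (4 nM) phosphorylated biotinylated peptide (0.05 μM) at 1.0 μM ATP in HEPES with Mg2+/Mn2+, 2 h at room temperature, compounds from 25 μM in 3-fold steps. AlphaScreen anti-phosphotyrosine PT66 detection; IC50 by non-linear regression.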

[2] = molecular target: T2, full-length human CSF-1R receptor (Homo sapiens, UniProt P07333); assay: In vitro inhibition of CSF-1R receptor tyrosine phosphorylation in transfected HEK293H cells; assay type: cell-based; conditions: HEK293-H, tested at about 1 μM, 50 ng/mL MCSF, read-out: PCSF1R percent inhibition
T2 construct: transfected with the full-length human CSF-1R receptor cloned in house; expressed in transfected cells; host or cells: HEK293H (Invitrogen Cat. #11631017)
Procedure: To test the inhibition of CSF-1R receptor tyrosine phosphorylation, HEK293H purchased from Invitrogen Cat. #11631017 cells transfected with the full-length human CSF-1R receptor cloned in house into mammalian episomal transfection vector were incubated for 1 h with serial dilutions of compounds starting at 10 μM with 3 fold dilutions and then stimulated for 8 min with 50 ng/mL MCSF. After the supernatant was removed, the cells were lysed on ice with lysis buffer (150 mM NaCl, 20 mM Tris, pH 7.5, 1 mM EDTA, 1 mM EGTA, 1% Triton X-100 and NaF, protease and phosphatase inhibitors) and then shaken for 15-20 min at 4° C. The lysate was then transferred to total CSF-1R antibody coated 96-well plates that had already been blocked with 3% Blocker A from Mesoscale discovery (MSD) for 2 hours and washed afterwards. Lysates were incubated overnight at 4° C. and the plates were then washed 4× with MSD Tris Wash Buffer. The SULFO-TAG anti-pTyr antibody from MSD was diluted to 20 nM final in 1% Blocker A (MSD) solution and added to the washed plates and incubated for 1.5-2 h before addition of read buffer (MSD). The plates were read on the Sector 6000 instrument (MSD). Raw data was imported in Abase and EC50s calculated with XL-fit data analysis software.

[3] = tested on: MNFS60 (murine AML cells); assay: Cell viability assay in MCSF dependent MNFS60 cells (Cell Titer Glo); assay type: cell-based; conditions: Mus musculus; tested at about 1 μM; MCSF 10 ng/mL, 72 hrs; read-out: CPEC50 MNFS60MCSF percent inhibition
How it was run: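 MNFS60 cells, 5,000 per well in RPMI-1640/10% FBS, grown with 10 ng/mL MCSF and 3-fold compound dilutions for 72 h at 37 °C. Viable cells measured by CellTiter-Glo luminescence, triplicates; EC50 fitted, with MCSF-free wells as 100% inhibition.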

cKIT = molecular target: T3, cKIT (Homo sapiens, UniProt P10721); assay: cKIT kinase in vitro biochemical assay (alphascreen); conditions: tested at about 1 μM; read-out: CKIT percent inhibition
T3 construct: The kinase domain of cKIT was assayed in 50 mM Hepes; purchased Upstate 14-559

PDGFRb = molecular target: T4, PDGFRb (Homo sapiens, UniProt P09619); assay: PDGFRb kinase in vitro biochemical assay (alphascreen); conditions: tested at about 1 μM; read-out: PDGF RK BETA percent inhibition
T4 construct: The kinase domain of PDGFRβ was assayed in 50 mM Hepes; purchased Invitrogen P3082
T4 sequence (P09619 600-962 limits assumed): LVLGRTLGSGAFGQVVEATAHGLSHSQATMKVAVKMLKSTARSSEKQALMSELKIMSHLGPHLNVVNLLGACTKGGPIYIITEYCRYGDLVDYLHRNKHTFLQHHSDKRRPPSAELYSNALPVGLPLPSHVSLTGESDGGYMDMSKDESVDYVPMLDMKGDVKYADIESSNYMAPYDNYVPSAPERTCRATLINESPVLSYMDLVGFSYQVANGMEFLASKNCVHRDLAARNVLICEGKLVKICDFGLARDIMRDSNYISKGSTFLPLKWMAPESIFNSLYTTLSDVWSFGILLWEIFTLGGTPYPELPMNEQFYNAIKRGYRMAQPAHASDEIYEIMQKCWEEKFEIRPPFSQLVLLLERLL

T2 sequence (P07333 20-972): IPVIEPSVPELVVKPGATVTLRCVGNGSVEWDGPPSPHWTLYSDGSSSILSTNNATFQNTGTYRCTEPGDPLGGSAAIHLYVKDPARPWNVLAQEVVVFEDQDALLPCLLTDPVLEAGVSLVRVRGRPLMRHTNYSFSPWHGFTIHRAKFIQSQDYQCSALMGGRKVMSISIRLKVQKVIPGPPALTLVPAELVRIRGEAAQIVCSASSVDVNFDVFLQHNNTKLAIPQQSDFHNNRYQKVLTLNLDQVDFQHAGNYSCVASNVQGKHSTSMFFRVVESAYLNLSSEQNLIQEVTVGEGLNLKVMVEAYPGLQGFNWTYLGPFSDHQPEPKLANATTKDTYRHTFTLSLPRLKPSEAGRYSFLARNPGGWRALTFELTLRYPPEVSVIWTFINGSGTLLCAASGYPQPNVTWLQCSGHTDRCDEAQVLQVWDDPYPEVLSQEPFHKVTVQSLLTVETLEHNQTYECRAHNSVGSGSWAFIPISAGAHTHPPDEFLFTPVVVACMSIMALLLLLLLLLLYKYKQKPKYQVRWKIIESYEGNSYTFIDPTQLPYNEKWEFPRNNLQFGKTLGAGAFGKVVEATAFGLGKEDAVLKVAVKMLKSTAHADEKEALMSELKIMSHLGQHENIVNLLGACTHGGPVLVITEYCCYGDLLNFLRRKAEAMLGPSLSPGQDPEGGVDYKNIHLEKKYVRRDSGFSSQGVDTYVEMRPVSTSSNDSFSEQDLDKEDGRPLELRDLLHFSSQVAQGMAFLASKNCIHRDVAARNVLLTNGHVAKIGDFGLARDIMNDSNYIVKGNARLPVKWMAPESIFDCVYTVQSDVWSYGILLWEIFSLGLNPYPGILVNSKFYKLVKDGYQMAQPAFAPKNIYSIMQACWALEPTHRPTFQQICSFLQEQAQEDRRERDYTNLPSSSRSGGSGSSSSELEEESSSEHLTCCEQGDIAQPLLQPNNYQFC
T3 sequence (P10721 589-937 limits assumed): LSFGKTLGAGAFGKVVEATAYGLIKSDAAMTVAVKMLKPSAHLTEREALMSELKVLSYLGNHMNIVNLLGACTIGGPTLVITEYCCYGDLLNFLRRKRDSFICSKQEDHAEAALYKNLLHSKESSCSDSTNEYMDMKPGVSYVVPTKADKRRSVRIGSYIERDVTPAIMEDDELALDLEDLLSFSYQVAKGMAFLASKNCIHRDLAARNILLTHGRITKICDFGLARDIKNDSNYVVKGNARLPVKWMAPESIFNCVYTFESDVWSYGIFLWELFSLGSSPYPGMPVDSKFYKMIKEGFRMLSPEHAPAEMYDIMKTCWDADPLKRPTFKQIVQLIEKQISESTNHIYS

Structure (SMILES)	inhibition at 1 µM [1] [%]	inhibition at 1 µM [2] [%]	inhibition at 1 µM [3] [%]	inhibition at 1 µM (cKIT) [%]	inhibition at 1 µM (PDGFRb) [%]
Cn1cc(-c2cncc(Oc3ccc4nc(N[C@@H]5CCCC[C@H]5O)sc4c3)n2)cn1 [Compound 93, (1R,2R)-2-(6-(6-(1-methyl-1H-pyrazol-4-yl)pyrazin-2-yloxy)benzo[d]thiazol-2-ylamino)cyclohexanol]	100	95	82	18	22
CCCn1cc(-c2cncc(Oc3ccc4nc(N[C@@H]5CCCC[C@H]5O)sc4c3)n2)cn1 [Compound 94, (1R,2R)-2-(6-(6-(1-propyl-1H-pyrazol-4-yl)pyrazin-2-yloxy)benzo[d]thiazol-2-ylamino)cyclohexanol]	100	95	80	13	9
Nc1ccc(-c2cncc(Oc3ccc4nc(N[C@@H]5CCCC[C@H]5O)sc4c3)n2)cn1 [Compound 97, (1R,2R)-2-(6-(6-(6-aminopyridin-3-yl)pyrazin-2-yloxy)benzo[d]thiazol-2-ylamino)cyclohexanol]	100	91	62	24	19
CN1CCN(c2ccc(-c3cncc(Oc4ccc5nc(N[C@@H]6CCCC[C@H]6O)sc5c4)n3)cn2)CC1 [Compound 98, (1R,2R)-2-(6-(6-(6-(4-methylpiperazin-1-yl)pyridin-3-yl)pyrazin-2-yloxy)benzo[d]thiazol-2-ylamino)cyclohexanol]	100	98	100	15	12
CN1CCN(c2ccc(-c3cc(Oc4ccc5nc(N[C@@H]6CCCC[C@H]6O)sc5c4)cnc3-c3ccc(N4CCN(C)CC4)nc3)cn2)CC1 [Compound 107, (1R,2R)-2-(6-(5,6-bis(6-(4-methylpiperazin-1-yl)-pyridin-3-yl)pyridin-3-yloxy)benzo[d]thiazol-2-ylamino)cyclohexanol]	100	86	100	16	26
